Structures are written as SMILES.

The assay has as its target T1, human GnRH receptor (Homo sapiens, UniProt P30968).
T1 construct: line established by Prof; Thomas Gudermann; host or cells: CHO cells
T1 sequence (P30968 1-328): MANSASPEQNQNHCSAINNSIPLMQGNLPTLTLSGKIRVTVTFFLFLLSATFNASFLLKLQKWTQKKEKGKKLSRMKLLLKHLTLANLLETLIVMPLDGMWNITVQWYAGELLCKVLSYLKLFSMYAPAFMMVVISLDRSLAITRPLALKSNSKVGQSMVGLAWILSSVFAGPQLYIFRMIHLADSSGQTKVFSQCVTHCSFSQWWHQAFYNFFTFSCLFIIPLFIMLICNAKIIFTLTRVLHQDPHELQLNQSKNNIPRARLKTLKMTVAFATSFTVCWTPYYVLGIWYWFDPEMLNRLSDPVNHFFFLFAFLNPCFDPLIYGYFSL
Put plainly: IP-One HTRF assay (inhibition of GnRH-R activation by buserelin). It counts as cell-based. Conditions: IP-One HTRF assay with buserelin (at EC80) stimulation; CHO cells stably expressing human GnRH receptor; tested 20 µM to 1 nM; read-out: Potency IC50. An excerpt:
By using homogenous time-resolved fluorescence resonance energy transfer (HTRF), the generation of one component of the GnRH-R signalling cascade can be measured. After stimulation of CHO cells stably expressing human GnRH receptor (established by Prof. Thomas Gudermann, currently University of Marburg, Germany; supplied as frozen cell aliquots by Cell Culture Services, Hamburg, Germany) with the EC80 of the GnRH agonist buserelin, Gq protein-coupled receptor signalling cascade is activated resulting in PLC-dependent cleavage of PIP2 to Inositol-1,4,5-triphosphate (IP3) and Diacylglycerol. The second messenger IP3 is degraded intracellularly to myo-inositol. Inhibition of the final degradation step from Inositol-1-phosphate (IP1) to myo-inositol by addition of lithium chloride leads to accumulation of IP1 in the cells. In cell lysates, IP1 can be detected via an antibody-based HTRF detection technology, where IP1 can displace the FRET acceptor IP1-d2 from binding by Terbium-labelled anti-IP1 antibody as donor resulting in a signal decrease. Compounds were tested for their capability of inhibiting GnRH-R activation by buserelin. For all IP-One HTRF® assays reagents of Cisbio Bioassays (IP-One Tb Jumbo kit, #62IPAPEJ; Cisbio Bioassays, Bagnols sur Cèze Cedex, France) were used.
For the assay, frozen cell aliquots were thawed and a cell suspension (3.33x10^6 cells/ml) containing IP1-d2 (dilution 1:40) was prepared and incubated at 37°C. After 1 h 3 µl of the cell suspension were added to 50 nl of a 100-fold concentrated solution of the test compound in DMSO pre-dispensed in a well of a white low-volume 384-well microtiter plate (Greiner Bio-One, Frickenhausen, Germany). The mixture was incubated for 20 min at 22°C to allow for pre-binding of the test compound to the GnRH-R. The receptor signaling cascade was stimulated by addition of 2 µl buserelin or LHRH (at EC50 or EC80) in stimulation buffer (10 mM Hepes pH 7.4, 1 mM CaCl2, 0.5 mM MgCl2, 4.2 mM KCI, 146 mM NaCl, 5.5 mM α-D-Glucose, 0.05% BSA, 125 mM LiCl (final assay concentration 50 mM) in aqua dest.). Plates were incubated for 1 h at 37°C and 5% carbon dioxide before the cells were lysed by adding 3 µl Terbium-labelled anti-IP1 antibody (1:40) diluted in Conjugate & Lysis buffer as supplied with the kit. After an incubation for 1 h at 22°C to enable complete cell lysis and antibody binding to free IP1 or IP1-d2, plates were measured in an HTRF reader, e.g. a RUBYstar, PHERAstar (both BMG Labtechnologies, Offenburg, Germany) or a Viewlux (PerkinElmer LAS, Rodgau-Jügesheim, Germany). From the fluorescence emissions at 665 nm (FRET) and at 620 nm (background signal of Terbium-antibody), the ratio (emission at 665 nm divided by emission at 620 nm) was calculated and the data were normalized (reaction without test compound = 0% inhibition; all other assay components except agonist = 100% inhibition). On the same microtiter plate, compounds were tested at 10 different concentrations in the range of 20 µM to 1 nM (20 µM, 6.7 µM, 2.2 µM, 0.74 µM, 0.25 µM, 82 nM, 27 nM, 9.2 nM, 3.1 nM and 1 nM; dilution series prepared before the assay at the level of the 100-fold conc. stock solutions by serial 1:3 dilutions in 100% DMSO) in duplicate values for each concentration. By using an in-house software, the IC50 values were calculated by a 4 parameter fit. The data reveal that the compounds of the present invention have antagonist activities on the human GnRH receptor. Within the meaning of the present invention the antagonist activity is reflected by the ability of a compound of the invention to antagonize human GnRH receptor stimulation in IP-One HTRF® assay at least three times the standard deviation over the background level.
One may read the IC50 as the point on the concentration scale where inhibition reaches its midpoint. For the compound `COC(=O)c1cccc(S(=O)(=O)N2c3ccc(C(=O)Nc4ccon4)cc3C3(CCC(O)(C(F)(F)F)CC3)C2C2CC2)c1` (stereo not shown) [Example 27, methyl 3-{[2'-cyclopropyl-4-hydroxy-5'-(1,2-oxazol-3-ylcarbamoyl)-4-(trifluoromethyl)spiro[cyclohexane-1,3'-indol]-1'(2'H)-yl]sulfonyl}benzoate], the IC50 turned out to be 1120 nM.
The result for `COC(=O)c1cccc(S(=O)(=O)N2c3ccc(C(=O)NCc4ncc(C(F)(F)F)cc4F)cc3C3(CCC(O)(C(F)(F)F)CC3)C2C2CC2)c1` (stereo not shown) [Example 28, methyl 3-{[2'-cyclopropyl-5'-({[3-fluoro-5-(trifluoromethyl)pyridin-2-yl]methyl}carbamoyl)-4-hydroxy-4-(trifluoromethyl)spiro[cyclohexane-1,3'-indol]-1'(2'H)-yl]sulfonyl}benzoate] reads 1780 nM; that for `COC(=O)c1cccc(S(=O)(=O)N2c3ccc(C(=O)NCc4ncccc4C(F)(F)F)cc3C3(CCC(O)(C(F)(F)F)CC3)C2C2CC2)c1` (stereo not shown) [Example 29, methyl 3-{[2'-cyclopropyl-4-hydroxy-4-(trifluoromethyl)-5'-({[3-(trifluoromethyl)pyridin-2-yl]methyl}carbamoyl)spiro[cyclohexane-1,3'-indol]-1'(2'H)-yl]sulfonyl}benzoate], 612 nM.
On to `COC(=O)c1cccc(NC(=O)c2ccc3c(c2)C2(CCC(O)(C(F)(F)F)CC2)C(C2CC2)N3S(=O)(=O)c2cccc(OC)c2)c1` (stereo not shown) [Example 31, methyl 3-[({2'-cyclopropyl-4-hydroxy-1'-[(3-methoxyphenyl)su Ifonyl]-4-(trifluoromethyl)-1',2'-dihydrospiro[cyclohexane-1,3'-indol]-5'-yl}carbonyl)amino] benzoate], for which the IC50 amounted to 669 nM.
As for `COC(=O)c1cccc(NC(=O)c2ccc3c(c2)C2(CCC(O)(C(F)(F)F)CC2)C(CC=C(C)C)N3S(=O)(=O)c2ccc(F)cc2)c1` (stereo not shown) [Example 32, methyl 3-[({1'-[(4-fluorophenyl)sulfonyl]-4-hydroxy-2'-(3-methylbut-2-en-1-yl)-4-(trifluoromethyl)-1',2'-dihydrospiro[cyclohexane-1,3'-indol]-5'-yl}carbonyl)amino] benzoate], the IC50 is 494 nM.
On to `COc1cccc(S(=O)(=O)N2c3ccc(C(=O)Nc4cc[nH]n4)cc3C3(CCC(O)(C(F)(F)F)CC3)C2C2CC2)c1` (stereo not shown) [Example 33, 2'-cyclopropyl-4-hydroxy-1'-[(3-methoxyphenyl)su Ifonyl]-N-(1H-pyrazol-3-yl)-4-(trifluoromethyl)-1',2'-dihydrospiro[cyclohexane-1,3'-indole]-5'-carboxamide], for which the IC50 is 2230 nM.
`COc1cccc(S(=O)(=O)N2c3ccc(C(=O)Nc4cccc(C)c4)cc3C3(CCC(O)(C(F)(F)F)CC3)C2C2CC2)c1` (stereo not shown) [Example 34, 2'-cyclopropyl-4-hydroxy-1'-[(3-methoxyphenyl)su Ifonyl]-N-(3-methylphenyl)-4-(trifluoromethyl)-1',2'-dihydrospiro[cyclohexane-1,3'-indole]-5'-carboxamide]: the concentration for half-maximal inhibition (IC50) is 3410 nM.
On to `COc1cccc(S(=O)(=O)N2c3ccc(C(=O)Nc4cccc(C(=O)O)c4)cc3C3(CCC(O)(C(F)(F)F)CC3)C2C2CC2)c1` (stereo not shown) [Example 35, 3-[({2'-cyclopropyl-4-hydroxy-1 '-[(3-methoxyphenyl)su Ifonyl]-4-(trifluoromethyl)-1',2'-dihydrospiro[cyclohexane-1,3'-indol]-5'-yl}carbonyl)amino] benzoic acid], for which the IC50 was determined as 1380 nM.
As for `COc1cccc(S(=O)(=O)N2c3ccc(C(=O)Nc4cccc(S(C)(=O)=O)c4)cc3C3(CCC(O)(C(F)(F)F)CC3)C2C2CC2)c1` (stereo not shown) [Example 36, 2'-cyclopropyl-4-hydroxy-1'-[(3-methoxyphenyl)su Ifonyl]-N-[3-(methylsulfonyl)phenyl]-4-(trifluoromethyl)-1',2'-dihydrospiro[cyclohexane-1,3'-indole]-5'-carboxamide], the IC50 came to 1270 nM.
Consider `COc1cccc(S(=O)(=O)N2c3ccc(C(=O)Nc4cccc(S(N)(=O)=O)c4)cc3C3(CCC(O)(C(F)(F)F)CC3)C2C2CC2)c1` (stereo not shown) [Example 37, 2'-cyclopropyl-4-hydroxy-1'-[(3-methoxyphenyl)su Ifonyl]-N-(3-sulfamoylphenyl)-4-(trifluoromethyl)-1',2'-dihydrospiro[cyclohexane-1,3'-indole]-5'-carboxamide], for which the IC50 amounted to 2640 nM.
The value for `COc1cccc(S(=O)(=O)N2c3ccc(C(=O)Nc4ccon4)cc3C3(CCC(O)(C(F)(F)F)CC3)C2C2CC2)c1` (stereo not shown) [Example 38, 2'-cyclopropyl-4-hydroxy-1'-[(3-methoxyphenyl)su Ifonyl]-N-(1,2-oxazol-3-yl)-4-(trifluoromethyl)-1',2'-dihydrospiro[cyclohexane-1,3'-indole]-5'-carboxamide] was 1680 nM.
`COc1cccc(S(=O)(=O)N2c3ccc(C(=O)Nc4cncc(C)c4)cc3C3(CCC(O)(C(F)(F)F)CC3)C2C2CC2)c1` (stereo not shown) [Example 39, 2'-cyclopropyl-4-hydroxy-1'-[(3-methoxyphenyl)su Ifonyl]-N-(5-methylpyridin-3-yl)-4-(trifluoromethyl)-1',2'-dihydrospiro[cyclohexane-1,3'-indole]-5'-carboxamide]: the 50% inhibitory concentration (IC50) is 1680 nM.
The value for `COc1cccc(S(=O)(=O)N2c3ccc(C(=O)Nc4cncc(C(F)(F)F)c4)cc3C3(CCC(O)(C(F)(F)F)CC3)C2C2CC2)c1` (stereo not shown) [Example 40, 2'-cyclopropyl-4-hydroxy-1'-[(3-methoxyphenyl)su Ifonyl]-4-(trifluoromethyl)-N-[5-(trifluoromethyl)pyridin-3-yl]-1',2'-dihydrospiro[cyclohexane-1,3'-indole]-5'-carboxamide] was 5650 nM.
`COc1cccc(S(=O)(=O)N2c3ccc(C(=O)Nc4ncco4)cc3C3(CCC(O)(C(F)(F)F)CC3)C2C2CC2)c1` (stereo not shown) [Example 41, 2'-cyclopropyl-4-hydroxy-1'-[(3-methoxyphenyl)su Ifonyl]-N-(1,3-oxazol-2-yl)-4-(trifluoromethyl)-1',2'-dihydrospiro[cyclohexane-1,3'-indole]-5'-carboxamide]: the IC50 was determined as 1490 nM.
Consider `COc1cccc(S(=O)(=O)N2c3ccc(C(=O)NCC4CCCCC4)cc3C3(CCC(O)(C(F)(F)F)CC3)C2C2CC2)c1` (stereo not shown) [Example 42, N-(cyclohexylmethyl) -2'-cyclopropyl-4-hydroxy-1'-[(3-methoxyphenyl)su Ifonyl]-4-(trifluoromethyl)-1',2'-dihydrospiro[cyclohexane-1,3'-indole]-5'-carboxamide], for which the IC50 was 1880 nM.
In the case of `COc1cccc(S(=O)(=O)N2c3ccc(C(=O)NCc4ccccc4Cl)cc3C3(CCC(O)(C(F)(F)F)CC3)C2C2CC2)c1` (stereo not shown) [Example 43, N-(2-chlorobenzyl)-2'-cyclopropyl-4-hydroxy-1'-[(3-methoxyphenyl)su Ifonyl]-4-(trifluoromethyl)-1',2'-dihydrospiro[cyclohexane-1,3'-indole]-5'-carboxamide], the concentration for half-maximal inhibition (IC50) is 621 nM.

Values taken from patent EP2881391A1, “Spiroindoline carbocycle derivatives and pharmaceutical compositions thereof” (Bayer Pharma Aktiengesellschaft, priority 2013, dated 2015).
